The results in this text go back to PubChem BioAssay (NCI).

What all share (experiment): NCI anticancer screen, dose series, 48 h
Assay [1] has as its system U251 CNS.
Assay [2] concerns NCI/ADR-RES ovarian.
Assay [3] concerns NCI-H226 lung.
Assay [4] concerns OVCAR-3 ovarian.
Assay [5] has as its system HOP-62 NSCLC.
The test system of assay [6] is HT29 colon.
For assay [7], the system named is NCI-H23 lung.
Assay [8] concerns SK-OV-3 ovarian.
The test system of assay [9] is HCT-116 colon.
The subject of assay [10] is K-562 leukemia.

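The compound was tested at five concentrations on cells cultured in 96-well plates, with a 48-hour exposure period. At the GI50, growth is halved. At the TGI there is no net growth.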 Bounds are passed on as bounds.

On to `COc1c(O)cc2c(c1O)C(=O)C1=C(CCCC1)C2=O`, for which the TGI in [1] was over 100 µM; in assay [2], 51.5 µM; in assay [3], over 100 µM; in assay [4], over 100 µM; in assay [5], over 100 µM; in [6] it was 40 µM. Also, the figures for the TGI in assay [7], in [8] and in assay [9] were 41.3 µM, 48.8 µM and 43.2 µM, respectively.

As to `COC(=O)C1(C)CC2C(C)(CCC3(C)C4=CC=C5C(=CC(=O)C(O)=C5C)C4(C)CCC23C)CC1O` (stereo unspecified), the TGI in assay [2] was determined as 2.93 µM; in [3] it was 4.46 µM; in [4], 2.24 µM; in assay [5] it was 3.51 µM; in assay [6], 2.53 µM; in [8] it was 4.13 µM. This compound also yielded a TGI in [9] of 1.89 µM.

`OCc1ccc(N2CCc3cc(F)ccc3C2)cc1Cl`: the GI50 in assay [10] is 0.125 µM; in assay [1], 0.0933 µM; in assay [2] it was 11.3 µM; in [4] it was 0.0518 µM; in assay [5], 0.302 µM; in assay [6], 0.167 µM. The results for the GI50 in assay [7], in [8] and in assay [9] were 12.8 µM, 3.85 µM and under 0.0166 µM, respectively. Moreover, the TGI in [10] was 17.2 µM; in assay [1], 14 µM; in [2], 33.7 µM; in [4] it was 0.288 µM; in [5], 17.9 µM; in assay [6], 14.1 µM. In addition, the values for the TGI in assay [7], in assay [8] and in assay [9] were 30.2 µM, 15.9 µM and 11.2 µM, respectively.

`O=CNc1ccc(S(=O)(=O)c2ccc(NC=O)cc2)cc1`: the TGI in assay [10], in assay [1], in assay [2], in assay [4], in assay [5] and in [6] was over 100 µM in each case. In addition, the TGI in assay [7], in assay [8] and in assay [9] was over 100 µM in each case.

Consider `COc1ccc2nc(-c3ccccc3)cc(Nc3cccc(C(C)=O)c3)c2c1`, for which the GI50 in [10] was 7.73 µM; in [1], 1.96 µM; in assay [2], 4.89 µM; in assay [3], 16.1 µM; in assay [5] it was 2.08 µM; in [6], 3.67 µM. For the same compound, the GI50 in [7] is 14 µM; in assay [8], 19.7 µM; in assay [9] it was 3.72 µM. For the same compound, the TGI in assay [10] is over 100 µM; in assay [1] it was 16.8 µM; in assay [2], 34.1 µM; in assay [3], 34.3 µM; in [5], 4.88 µM; in [6], over 100 µM. Besides, the TGI in assay [7] is 33.1 µM; in assay [8] it was 56.5 µM; in assay [9], 15.4 µM.

In the case of `O=C1c2cccnc2C(=O)c2c1c(C(=O)NCCn1ccnc1)c1ccccn21`, the GI50 in assay [10] was 4.39 µM; in assay [1] it was 2.96 µM; in [2] it was 27.4 µM; in assay [4] it was 2.28 µM; in assay [5], 1.28 µM; in assay [6], 2.53 µM. Besides, the GI50 in assay [7] is 1.18 µM; in assay [8], 8.88 µM; in assay [9], 3.18 µM. Moreover, the TGI in assay [10] is over 100 µM; in [1], 9.18 µM; in assay [2] it was over 100 µM; in assay [4], 7.43 µM; in [5], 11.3 µM; in assay [6] it was 9.2 µM. Besides, the TGI in assay [7] is 4.21 µM; in assay [8] it was 21.3 µM; in assay [9], 9.58 µM.

For `O=C(/C=C/C(Cl)(Cl)Cl)Nc1ccc(Cl)cc1`, the TGI turned out to be 26.2 µM in assay [1]; 14 µM in assay [2]; 36.6 µM in [3]; 17.3 µM in assay [4]; 9.95 µM in assay [5]; 4.03 µM in assay [6]. Besides, the TGI in assay [7] was determined as 11.3 µM; in [8], 34.6 µM; in [9], 17.6 µM.

Take `CCCCCC[C@@H](C)Nc1nc2ccccc2c2occc12`: the GI50 is 19.9 µM in assay [10]; 11.7 µM in assay [1]; 10.7 µM in assay [2]; 13.5 µM in assay [4]; 14.8 µM in assay [5]; 14.5 µM in assay [6]. For the same compound, the figures for the GI50 in [7], in [8] and in [9] were 1 µM, 15.7 µM and 4.87 µM, respectively. Also, the TGI in [10] is over 100 µM; in [1] it was 23.9 µM; in assay [2], 22.6 µM; in [4], 38.2 µM; in assay [5], 28 µM; in [6], 43.5 µM. Moreover, the TGI in [7] was found to be 6.97 µM; in [8], 32.2 µM; in assay [9], 18.1 µM.
